Usually IC50 stands for the point on the concentration scale where inhibition reaches its midpoint. The EC50 is the concentration needed to bring the measured effect to its halfway point.

In assay [1] the target is human KEAP1 (N-term, residues 321-609) (Homo sapiens, UniProt Q14145). Put plainly: biochemical.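 Note: fluorescence polarization competition assay of Kelch domain binding to NRF2, 12-point 1:3 dilution series from 10 µM, read after 1 h at room temperature, floor 10 nM.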
Assay [2] concerns NQO1 mRNA in BEAS-2B cells. Put plainly: Beas2B NQO1 mRNA cell based assay. More on the design: species or system human. Particulars: 24 h compound treatment, increase in NQO1 mRNA vs vehicle (0.1% DMSO), read-out: EC50. On the procedure: Beas2B NQO1 mRNA Cell Based Assay
The up regulation of the NRF2 mediated gene NAD(P)H:quinone acceptor oxidoreductase 1 (NQO1) was measured using the following assay method: BEAS-2B cells (ATCC CRL-9609) were plated in 96-well clear plates at 20,000 cells/well in 75 μL of cell culture media and incubated overnight (37° C., 5% CO2). On day 2, 25 μL of compound or controls were added to the cells for 24 h. On day 3, the medium was aspirated from the plate and the Cells-to-CT™ 1-Step TaqMan® Kit (Ambion A25603) was used to perform expression analysis directly from cultured cells without RNA purification according to the manufacturer's instructions.
Briefly, cells were washed with ice cold PBS and 22.5 μL of room-temperature DNase/Lysis solution was added to the cells and incubated at room temperature for 5 minutes. To stop the reaction, 2.25 μL of stop solution was added to the cell lysate. The samples were diluted 1:5 using nuclease free water and 2.5 μL transferred into the PCR plate. Real-time PCR was performed using the C-1000 Thermal Cycler (Bio-Rad) using human beta actin as the internal control. The cDNA was amplified with a specific primer for NQO1 using the 1-step RT-PCR master mix (Ambion Cells-to-CT™ 1-Step TaqMan® Kit A25603). The primers/probes sets that were used for amplification of cDNA were obtained from TaqMan Gene Expression Assays (Applied Biosystems). The comparative CT (ΔΔCT) relative quantification method was used to calculate the relative mRNA level of the target gene NQO1 as described in the Applied Biosystems Chemistry Guide.

Where two headings read alike, the source gives them in different places.

Sequence of human KEAP1 (N-term, residues 321-609) (Q14145 321-609): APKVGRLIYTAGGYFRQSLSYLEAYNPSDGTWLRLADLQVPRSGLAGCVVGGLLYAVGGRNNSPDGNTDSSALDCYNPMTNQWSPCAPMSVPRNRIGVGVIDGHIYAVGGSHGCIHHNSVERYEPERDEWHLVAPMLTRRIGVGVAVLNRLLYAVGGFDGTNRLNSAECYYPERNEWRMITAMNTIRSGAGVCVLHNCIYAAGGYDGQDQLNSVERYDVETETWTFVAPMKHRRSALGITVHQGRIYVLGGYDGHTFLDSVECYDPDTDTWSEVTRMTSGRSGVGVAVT

Turning to `Cn1cc(COc2ccc(Cl)c3c2[C@@H](CN2CC4(CC4)CC2=O)N(C(=O)[C@@H]2CCCC[C@]2(C)C(=O)O)CC3)nn1` [Example 158, (1S,2R)-2-((S)-5-chloro-8-((1-methyl-1H-1,2,3-triazol-4-yl)methoxy)-1-((6-oxo-5-azaspiro[2.4]heptan-5-yl)methyl)-1,2,3,4-tetrahydroisoquinoline-2-carbonyl)-1-methylcyclohexane-1-carboxylic acid], half-maximal inhibition in assay [1] (IC50) was put at 6.3 nM. Moreover, in assay [2] (Homo sapiens, BEAS-2B, 24 h), the concentration giving a half-maximal response (EC50) amounted to 1.2 nM.
In assay [1], `Cn1ccc(COc2ccc(Cl)c3c2[C@@H](CN2CC4(CC4)CC2=O)N(C(=O)[C@@H]2CCCC[C@]2(C)C(=O)O)CC3)cc1=O` [Example 148, (1S,2R)-2-((S)-5-chloro-8-((1-methyl-2-oxo-1,2-dihydropyridin-4-yl)methoxy)-1-((6-oxo-5-azaspiro[2.4]heptan-5-yl)methyl)-1,2,3,4-tetrahydroisoquinoline-2-carbonyl)-1-methylcyclohexane-1-carboxylic acid] returned a half-maximal inhibitory concentration (IC50) of 6.6 nM. The EC50 in assay [2] (Homo sapiens, BEAS-2B, 24 h) was 22 nM.
For the compound `C[C@@H]1CC(=O)N(C[C@@H]2c3c(OCc4nnn(C)c4C(F)F)ccc(Cl)c3CCN2C(=O)[C@@H]2CCC[C@]2(C)C(=O)O)C1` [Example 109, (1S,2R)-2-((S)-5-Chloro-8-((5-(difluoromethyl)-1-methyl-1H-1,2,3-triazol-4-yl)methoxy)-1-(((R)-4-methyl-2-oxopyrrolidin-1-yl)methyl)-1,2,3,4-tetrahydroisoquinoline-2-carbonyl)-1-methylcyclopentane-1-carboxylic acid], it took 9.7 nM to reach half-maximal inhibition in assay [1] (IC50). For the same compound, in assay [2] (Homo sapiens, BEAS-2B, 24 h), the EC50 was 7.4 nM.
On to `O=C(O)[C@H]1CCCC[C@H]1C(=O)N1CCc2c(Br)ccc(OCc3nnc4n3CCCC4)c2[C@H]1CN1Cc2ccccc2C1=O` [Example 44, (1S,2R)-2-((S)-5-bromo-1-((1-oxoisoindolin-2-yl)methyl)-8-((5,6,7,8-tetrahydro-[1,2,4]triazolo[4,3-a]pyridin-3-yl)methoxy)-1,2,3,4-tetrahydroisoquinoline-2-carbonyl)cyclohexane-1-carboxylic acid], for which, in assay [1], the IC50 is 4.2 nM. Also, the half-maximal effective concentration (EC50) in assay [2] (Homo sapiens, BEAS-2B, 24 h) was found to be 10 nM.
`Cc1c(COc2ccc(Cl)c3c2[C@@H](CN2CCCC2=O)N(C(=O)[C@@H]2CCCC[C@]2(C)C(=O)O)CC3)nnn1C` [Example 107, (1S,2R)-2-((S)-5-Chloro-8-((1,5-dimethyl-1H-1,2,3-triazol-4-yl)methoxy)-1-((2-oxopyrrolidin-1-yl)methyl)-1,2,3,4-tetrahydroisoquinoline-2-carbonyl)-1-methylcyclohexane-1-carboxylic acid] had a half-maximal inhibitory concentration (IC50) in assay [1] of 6.6 nM. Besides, the EC50 in assay [2] (Homo sapiens, BEAS-2B, 24 h) turned out to be 0.35 nM.
For `O=C(O)[C@H]1CCCC[C@H]1C(=O)N1CCc2c(Cl)ccc(OCc3nnc4ccccn34)c2[C@H]1CN1CCCC1=O` [Example 94, (1S,2R)-2-((S)-8-([1,2,4]Triazolo[4,3-a]pyridin-3-ylmethoxy)-5-chloro-1-((2-oxopyrrolidin-1-yl)methyl)-1,2,3,4-tetrahydroisoquinoline-2-carbonyl) cyclohexane-1-carboxylic acid], half-maximal inhibition in assay [1] (IC50) was put at 7.7 nM. Further, in assay [2] (Homo sapiens, BEAS-2B, 24 h), the EC50 turned out to be 7.8 nM.
In assay [1], `CC(C)n1nnc(COc2ccc(Cl)c3c2[C@@H](CN2CCCC2=O)N(C(=O)[C@@H]2CCCC[C@]2(C)C(=O)O)CC3)c1C(F)F` [Example 121, (1S,2R)-2-((S)-5-chloro-8-((5-(difluoromethyl)-1-isopropyl-1H-1,2,3-triazol-4-yl)methoxy)-1-((2-oxopyrrolidin-1-yl)methyl)-1,2,3,4-tetrahydroisoquinoline-2-carbonyl)-1-methylcyclohexane-1-carboxylic acid] returned an IC50 of 6.3 nM. In assay [2] (Homo sapiens, BEAS-2B, 24 h), the EC50 was found to be 11 nM.
With `CC(C)n1cc(COc2ccc(Br)c3c2[C@@H](CN2C[C@H](C)CC2=O)N(C(=O)[C@@H]2CCCC[C@@H]2C(=O)O)CC3)nn1` [Example 75, (1S,2R)-2-((S)-5-Bromo-8-((1-isopropyl-1H-1,2,3-triazol-4-yl)methoxy)-1-(((R)-4-methyl-2-oxopyrrolidin-1-yl)methyl)-1,2,3,4-tetrahydroisoquinoline-2-carbonyl) cyclohexane-1-carboxylic acid], half-maximal inhibition in assay [1] (IC50) required 6.5 nM. The EC50 in assay [2] (Homo sapiens, BEAS-2B, 24 h) amounted to 8.3 nM.
On to `Cn1nnc(COc2ccc(Br)c3c2[C@@H](CN2CC4(CC4)CC2=O)N(C(=O)[C@@H]2CCCC[C@]2(C)C(=O)O)CC3)c1C(F)F` [Example 198, (1S,2R)-2-((S)-5-bromo-8-((5-(difluoromethyl)-1-methyl-1H-1,2,3-triazol-4-yl)methoxy)-1-((6-oxo-5-azaspiro [2.4]heptan-5-yl)methyl)-1,2,3,4-tetrahydroisoquinoline-2-carbonyl)-1-methylcyclohexane-1-carboxylic acid], for which, in assay [1], it took 5.2 nM to reach half-maximal inhibition (IC50). For the same compound, the EC50 in assay [2] (Homo sapiens, BEAS-2B, 24 h) came to 0.24 nM.
With `[2H]C1([2H])CC[C@](C)(C(=O)O)[C@H](C(=O)N2CCc3c(Cl)ccc(OCc4nnn(C)c4C(F)F)c3[C@H]2CN2CC3(CC3)CC2=O)C1` [Example 142, (1S,2R)-2-((S)-5-chloro-8-((5-(difluoromethyl)-1-methyl-1H-1,2,3-triazol-4-yl)methoxy)-1-((6-oxo-5-azaspiro[2.4]heptan-5-yl)methyl)-1,2,3,4-tetrahydroisoquinoline-2-carbonyl)-1-methylcyclohexane-1-carboxylic-4,4-d2 acid], the concentration for half-maximal inhibition (IC50) in assay [1] amounted to 5 nM. Also, the EC50 in assay [2] (Homo sapiens, BEAS-2B, 24 h) was 0.21 nM.
For `Cn1c(COc2ccc(Cl)c3c2[C@@H](CN2CC4(CC4)CC2=O)N(C(=O)[C@@H]2CCCC[C@]2(C)C(=O)O)CC3)cccc1=O` [Example 214, (1S,2R)-2-((S)-5-chloro-8-((1-methyl-6-oxo-1,6-dihydropyridin-2-yl)methoxy)-1-((6-oxo-5-azaspiro [2.4]heptan-5-yl)methyl)-1,2,3,4-tetrahydroisoquinoline-2-carbonyl)-1-methylcyclohexane-1-carboxylic acid] the same measures were 5.2 nM and 41 nM.
For `Cn1nnc(COc2ccc(Cl)c3c2[C@@H](CN2CCCC2=O)N(C(=O)[C@@H]2CCC[C@@H]2C(=O)O)CC3)c1C(F)F` [Example 86, (1S,2R)-2-((S)-5-Chloro-8-((5-(difluoromethyl)-1-methyl-1H-1,2,3-triazol-4-yl)methoxy)-1-((2-oxopyrrolidin-1-yl)methyl)-1,2,3,4-tetrahydroisoquinoline-2-carbonyl)cyclopentane-1-carboxylic acid] the same measures were 5 nM and 8.3 nM.
`O=C(O)[C@H]1CCCC[C@H]1C(=O)N1CCc2c(Br)ccc(OCc3nnc4ccccn34)c2[C@H]1CN1CCCC1=O` [Example 64, (1S,2R)-2-((S)-8-[(1,2,4]triazolo[4,3-a]pyridin-3-ylmethoxy)-5-bromo-1-((2-oxopyrrolidin-1-yl)methyl)-1,2,3,4-tetrahydroisoquinoline-2-carbonyl)cyclohexane-1-carboxylic acid] showed a half-maximal inhibitory concentration (IC50) in assay [1] of 6.3 nM. In assay [2] (Homo sapiens, BEAS-2B, 24 h), the EC50 was 23 nM.
On the same counts, the results for `Cc1onc(COc2ccc(Cl)c3c2[C@@H](CN2CCCC2=O)N(C(=O)[C@@H]2CCCC[C@]2(C)C(=O)O)CC3)c1C` [Example 124, (1S,2R)-2-((S)-5-chloro-8-((4,5-dimethylisoxazol-3-yl)methoxy)-1-((2-oxopyrrolidin-1-yl)methyl)-1,2,3,4-tetrahydroisoquinoline-2-carbonyl)-1-methylcyclohexane-1-carboxylic acid] are 8.4 nM and 6.8 nM.
Take `C[C@]1(C(=O)O)CCCC[C@H]1C(=O)N1CCc2c(Cl)ccc(OCc3cncnc3C(F)(F)F)c2[C@H]1CN1CC2(CC2)CC1=O` [Example 171, (1S,2R)-2-((S)-5-chloro-1-((6-oxo-5-azaspiro[2.4]heptan-5-yl)methyl)-8-((4-(trifluoromethyl)pyrimidin-5-yl)methoxy)-1,2,3,4-tetrahydroisoquinoline-2-carbonyl)-1-methylcyclohexane-1-carboxylic acid]: the midpoint of inhibition in assay [1], the IC50, lay at 6.4 nM. The 50% effective concentration (EC50) in assay [2] (Homo sapiens, BEAS-2B, 24 h) was 19 nM.
As for `CC(Oc1ccc(Br)c2c1[C@@H](CN1Cc3ccccc3C1=O)N(C(=O)[C@@H]1CCCC[C@@H]1C(=O)O)CC2)c1cn(C(C)C)nn1` (single isomer, unassigned) [Example 47], half-maximal inhibition in assay [1] (IC50) required 68 nM. Moreover, the EC50 in assay [2] was found to be 76 nM.
`Cn1nnc(COc2ccc(Cl)c3c2[C@@H](CN2CCCC2=O)N(C(=O)C2CC(F)(F)CC2C(=O)O)CC3)c1C(F)F` (stereo partly drawn) [Example 101, 2-((S)-5-chloro-8-((5-(difluoromethyl)-1-methyl-1H-1,2,3-triazol-4-yl)methoxy)-1-((2-oxopyrrolidin-1-yl)methyl)-1,2,3,4-tetrahydroisoquinoline-2-carbonyl)-4,4-difluorocyclopentane-1-carboxylic acid]: the IC50 in assay [1] stood at 1900 nM. In assay [2] (Homo sapiens, BEAS-2B, 24 h), the EC50 came to 710 nM.
